GI50 and TGI data for nine compounds are collected here from PubChem BioAssay (NCI).

Holding throughout (experiment): growth of human tumour cells (NCI), 48 h
For experiment [1], the system named is ACHN renal.
The test system of experiment [2] is COLO 205 colon.
Experiment [3] relates to HL-60(TB) leukemia.
Experiment [4] concerns IGROV1 ovarian.
For experiment [5], the system named is MDA-MB-231 breast.
Experiment [6] deals with OVCAR-4 ovarian.
Experiment [7] has as its system SF-539 CNS.
Experiment [8] has as its system SK-OV-3 ovarian.
For experiment [9], the system named is SR leukemia.
For experiment [10], the system named is T-47D breast.

Where “and” joins values, the source holds several entries; their conditions need not be identical. Identical values can stand only once.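 Growth conditions: 96-well plates. Treatment: test compound, 48 hours, 5 concentrations. Analysis: linear interpolation between bracketing concentrations; unreached endpoints set to highest concentration. Abbreviation: GI50, concentration required for 50% inhibition of growth. TGI: total growth inhibition.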

Take `COc1ccc(CCN2CCC(CN(C)Cc3cnn(-c4ccccc4)c3)CC2)cc1`: the GI50 in experiment [1] was 10.9 µM; in experiment [2] it was 3.42 µM; in experiment [3], 20 µM; in experiment [4] it was 25.6 µM; in experiment [5], 3.58 µM; in experiment [6] it was 7.75 µM. The GI50 in experiment [7] is 2.77 µM; in experiment [8] it was 16.2 µM; in experiment [9] it was 3.92 µM; in [10], 10.4 µM. Moreover, the TGI in experiment [1] is 33 µM; in experiment [2] it was 11.7 µM; in [3], 48.4 µM; in experiment [4], over 100 µM; in experiment [5] it was 20.1 µM; in experiment [6], 57.5 µM. Also, the TGI in [7] is 8.08 µM; in experiment [8], 39.9 µM; in experiment [9], 25.2 µM; in experiment [10] it was 30.7 µM.

Regarding `C/C(=N\NC(=S)N1CCCCCC1)c1cccc2cccnc12`, the TGI in experiment [1] is 11.6 µM; in [2] it was 12.3 µM; in experiment [3], over 45.7 µM; in experiment [4] it was over 94.1 µM; in experiment [5], over 79 µM; in [6] it was over 21.4 µM. The TGI in experiment [7] is 5.65 µM; in [8], over 81.5 µM; in experiment [9], 14.5 µM; in experiment [10] it was 70.9 µM.

Turning to `COc1cc(C)c2sc3ccccc3c(=O)c2c1NCCN(C)C`, the GI50 in experiment [1] is 2.97 µM; in [2] it was 1.86 µM; in [3], 4.68 µM; in experiment [4], 3.56 µM; in [5], 3.48 µM; in experiment [6], 8.08 µM. Further, the GI50 in experiment [7] is 4.73 µM; in experiment [8] it was 10.9 µM; in [9], 2.79 µM; in experiment [10] it was 2.58 µM. Besides, the TGI in experiment [1] was found to be 11.3 µM; in experiment [2], 3.51 µM; in [3], 16.3 µM; in experiment [4], 14.5 µM; in experiment [5] it was 15.9 µM; in experiment [6] it was 20.9 µM. Moreover, the TGI in experiment [7] was found to be 17.4 µM; in [8] it was 23.6 µM; in experiment [9] it was 7.91 µM; in [10] it was 9.4 µM.

On to `CCN1C(=NCCO)NS(=O)(=O)c2ccccc21`, for which the TGI in [1], in [2], in experiment [3], in experiment [4], in experiment [5] and in experiment [6] was over 100 µM throughout. Besides, the TGI in [7], in experiment [8], in [9] and in experiment [10] was over 100 µM in each case.

Consider `CC(C)(C)OC(=O)NCc1cccc(N=C=S)c1`, for which the GI50 in experiment [1] was 21.1 µM; in experiment [2], 15.7 µM; in experiment [3], 28.2 µM; in experiment [4], 19.3 µM; in experiment [5] it was 25.7 µM; in experiment [6], 16.7 µM. Besides, the GI50 in [7] is 21.1 µM; in [8] it was 35.5 µM; in experiment [9] it was 20 µM; in experiment [10], 16.5 µM. Besides, the TGI in experiment [1] was 67.6 µM; in experiment [2] it was 33.9 µM; in experiment [3], 69.8 µM; in [4], 41.8 µM; in [5], over 85.7 µM; in experiment [6], 51.8 µM. Also, the TGI in experiment [7] is 59.7 µM; in [8], over 84.9 µM; in [9], over 81.9 µM; in experiment [10], 36.6 µM.

Take `COc1ccc(-c2c3c(nc4n[nH]c(-c5ccc(Cl)cc5)c24)-c2ccccc2C(=O)C3=O)cc1`: the GI50 in experiment [1] was 1.46 µM; in experiment [2], 1.57 µM; in [3], 3.08 µM; in experiment [4] it was 1.54 µM; in [5] it was 1.6 µM; in experiment [6] it was 1.7 µM. The GI50 in experiment [7] was 1.7 µM; in experiment [8], 1.68 µM; in experiment [9] it was 2.57 µM; in experiment [10], 1.03 µM. Besides, the TGI in [1] came to 3.3 µM; in [2], 2.99 µM; in experiment [3], 28.1 µM; in [4], 3.22 µM; in experiment [5], 5.3 µM; in [6], 15.9 µM. In addition, the TGI in experiment [7] is 3.47 µM; in experiment [8], 3.23 µM; in experiment [9], over 100 µM; in experiment [10], 9.47 µM.

For the compound `COC(=O)[C@H](Cc1cn(C)cn1)NC(=O)[C@H](C)NC(=O)Nc1cc(C(F)(F)F)cc(C(F)(F)F)c1`, the GI50 in [1], in [2], in [3], in experiment [4], in [5] and in experiment [6] was over 10 µM in each case. The GI50 was over 10 µM in experiment [7], over 10 µM in experiment [8], over 10 µM in experiment [9] and 7.58 µM in experiment [10]. In addition, the TGI in [1], in experiment [2], in [3], in [4], in experiment [5] and in experiment [6] was over 10 µM throughout. Moreover, the TGI in experiment [7], in experiment [8], in experiment [9] and in [10] was over 10 µM each time.

In the case of `CCc1nc(N)nc(N)c1-c1ccc(Cl)c(N=[N+]=[N-])c1`, the GI50 in experiment [1] is 2.33 µM and 4.75 µM; in experiment [3], 0.4 µM and 2.14 µM; in [4] it was 2.09 µM and 4.22 µM; in experiment [9], 1.3 µM and 2.68 µM. Besides, the TGI in experiment [1] is over 100 µM; in experiment [2] it was 23.3 µM and 26.1 µM; in [4], over 91.2 µM; in experiment [5] it was > 67.6 µM and 46.5 µM; in experiment [6], 97.7 µM and > 100 µM; in experiment [7] it was > 39.9 µM and 65.3 µM. The TGI was over 100 µM in [8]; 19.2 µM and 43.9 µM in [9]; over 96.2 µM in experiment [10].

Consider `COc1ccc2c(c1)-c1nn(CCCN(C)C)c3ccc([N+](=O)[O-])c(c13)N2`, for which the GI50 in [1] was 0.102 µM and 0.26 µM; in [2], 0.0962 µM and 0.276 µM; in experiment [3] it was 0.468 µM and 2.9 µM; in [4], 0.215 µM and 0.507 µM; in experiment [5], 0.198 µM and 1.17 µM; in [6], 0.234 µM and 0.649 µM. The GI50 in experiment [7] is 0.163 µM and 0.602 µM; in experiment [8], 0.175 µM and 0.866 µM; in [9] it was 1.27 µM; in experiment [10], 0.668 µM and 0.308 µM. Further, the TGI in experiment [1] is 1.25 µM and 3.69 µM; in experiment [2], 0.913 µM and 3.75 µM; in [3] it was 1.82 µM and 9.36 µM; in experiment [4], 3.48 µM and 6.59 µM; in [5], 2.79 µM and 12 µM; in experiment [6], 1.18 µM and 2 µM. Moreover, the TGI is 3.17 µM and 7.49 µM in experiment [7]; 1.86 µM and 7.69 µM in [8]; 11.4 µM and 2.27 µM in experiment [10].
